Article PMC12606624 (Journal of Chemical Information and Modeling, 2025)

Columns and labels:
[1] = system: monomeric RAD51 (His-RAD51[F86E, A89E]); test: Cross-linking with BS3 or EDAC, Coomassie blue SDS-PAGE and Western blot; format: binding; details: Coomassie blue-stained SDS-PAGE; BS3 1 mM, 1:1; EDAC 0.2% (w/v), 1:2
Experimental: For cross-linking with bis(sulfosuccinimidyl)-suberate (BS3), the purified His-RAD51[F86E, A89E] concentration was adjusted to 24 μM (=0.98 mg/mL). […] The mixture was incubated for 30 min at 20 °C on a thermoblock to allow for complex formation and then cross-linked with a final concentration of 1 mM BS3 (previously solubilized in PBS as a 50 mM stock). After 30 min at the same temperature, 4× Laemmli Sample Buffer (BioRad #1610747) was added to cross-linked samples and boiled at 95 °C for 5 min. […] The mixture was incubated for 1 h at 20 °C to allow for complex formation and then cross-linked with a final concentration of 0.2% (w/v) EDAC (previously solubilized in DMSO as a 10% w/v stock) for 1 h at the same temperature. 4× Laemmli Sample Buffer (BioRad #1610747) was then added to cross-linked samples and boiled at 95 °C for 5 min.
The efficiency of cross-linking reactions was evaluated through Coomassie blue staining and Western blot (WB) analysis. Prepared cross-linked samples were resolved using a 4–15% SDS-PAGE gel (Criterion TGX Precast Midi Protein Gel), which was stained using page blue protein staining solution (Thermo Fisher, 24620) according to manufacturer protocols. […] After three washes in TBS-T, chemiluminescence was detected using the Clarity Western ECL substrate (Biorad, #1705061), and images were recorded using a ChemiDoc MP Imaging System (Biorad). […]

[2] = system: monomeric His-RAD51 [F86E, A89E]; test: Static light scattering (SLS) binding test, SEC columns in tandem
Experimental: Static light scattering (SLS) analyses were performed on a Viscotek GPCmax/TDA (Malvern, UK) instrument, connected in tandem with a series of two TSKgel G3000PWxl size-exclusion chromatography columns (Tosoh Bioscience) as already described in ref . For all the experiments, the system was equilibrated with buffer containing 20 mM Hepes pH 8.00, 100 mM Na2SO4, and 5% glycerol. […] Data analysis was performed using Viscotek software, calibrating the instrument with Bovine Serum Albumin at 5 mg/mL. Data were exported as .csv files and regraphed using GraphPad Prism 10.

His-RAD51 [F86E, A89E] = test: Biolayer interferometry (BLI), bioBRC4 immobilized on Streptavidin biosensors; format: binding; details: 460, 230 and 115 nM His-RAD51 [F86E, two replicates, pH 8.00, 25 °C, 180 s association, 180 s dissociation
Experimental: Biolayer interferometry (BLI) experiments were performed by utilizing an Octet K2 system (Sartorius). All BLI experiments were carried out in an assay buffer containing 20 mM Hepes, pH 8.00, 100 mM Na2SO4, 5% glycerol, 0.05% Tween 20, 0.1% PEG8000, and 0.5 mM Sodium Deoxycholate. The following protocol was applied: 60 s baseline, 240 s loading, 240 s baseline, 180 s association, 180 s dissociation. For every step, shaking at 1000 rpm was enabled, and the temperature was set at 25 °C. Streptavidin Octet biosensors (18-5019, Sartorius) were initially dipped into assay buffer to record an initial baseline for 60 s. BioBRC4 was solubilized in 100% DMSO at a 2 mM concentration, diluted at a final 1 μM concentration in assay buffer, and then immobilized to the Streptavidin sensor through a 240 s loading step. After the loading stage, a second baseline of 240 s was recorded in wells containing only assay buffer to verify the stability of the signal and remove unbound peptide. […] Data were analyzed using Octet Analysis Studio 12.2 by subtracting, from recorded sensorgrams, the signals of both the reference well and reference sensors to remove the signals due to nonspecific binding. The recorded sensorgrams were corrected by aligning to the average of the second baseline steps and applying Savitzky–Golay filtering and interstep correction based on the second baseline step. […]

## Bio-Ahx-KEPTLLGFHTASGKKVKIAKESLDKVKNLFDEKEQ-COOH [bioBRC4, modified version of BRC4 harboring a biotin at the N-ter]
[1]
  cross-linking to monomeric RAD51, BS3 versus EDAC: BS3 cross-linked bioBRC4 to the monomeric RAD51 more effectively than EDAC
[2]; SLS and BLI (two orthogonal methods), SLS: RAD51 [F86E, A89E] 24 μM, 1 h at 25 °C, 4-fold excess peptide, 20 mM Hepes pH 8.00, 100 mM Na2SO4, 5% glycerol, 5% DMSO for BioBRC4
  binding to monomeric RAD51: confirmed the binding of bioBRC4 to monomeric RAD51
[2]; bioBRC4 vs BRC4, assessed from SLS and BLI (Figure S3)
  effect of biotin modification on binding to monomeric RAD51: did not negatively affect its binding to monomeric RAD51
His-RAD51 [F86E, A89E]
  binding to monomeric RAD51: showing the binding of monomeric His-
